Test results from patent US6681132B1, “Sodium magnetic reasonance imaging used in diagnosing tumors and assessing response to treatment” (The Trustees of Columbia University in the City of New York, priority 1999, dated 2004).

Legend:
PC3 tumors = assay: Inversion recovery (IR) weighted sodium MRI of PC3 tumors after chemotherapy; type: in vivo, nude mice; settings: for increase in maximum IR sodium image intensity: PC3 tumors, 24 hrs vs predrug, 25 msec inversion time, normalized to brighter phantom, taxotere 1.5 mg, VP-16 0.2-0.4 mg, femoral vein
Procedure: (A) Chemotherapy and inversion recovery MR imaging—Following acquisition of control images, antineoplastics were administered. All IR images and SQ images were normalized to the brightest phantom within each slice (i.e., 40% Ficoll for IR and 30% Ficoll for SQ respectively). All tumors were analyzed by examining changes in intensity at the brightest—usually central area—of the tumor image. It was clearly identifiable both from manual examination with line profiles or from the pixel density histogram derived from a region of interest analysis. […] Results from PC3 tumors (solid lines, filled circles) and DU145 tumors (dashed lines, open circles) are plotted together. In two experiments with control saline injections (not shown in graphs), there were small decreases of 5.5% (NS) at 24 hours and 3.5% (NS) at 48 hours.
In vivo detection of antineoplastic effects using weighted sodium MR images—Examination of the effect of chemotherapy on the IR sodium image in a series of PC3 and DU145 tumors was studied. Control and post-therapy images were acquired in sixteen mice, and tumors in two additional mice had images reacquired at both 24 and 48 hrs following control saline injection. […] Results are plotted as change in maximum image intensity for each drug separately (top panel, FIG. 4, taxotere; bottom panel, FIG. 4, VP-16 etoposide). Elevation is significant for each drug taken separately for the more numerous PC3 tumor experiments (taxotere, 32% increase at p<0.001, n=5; VP-16, 38% increase at p<0.0005, n=7); and is also significant for all PC3 experiments measured at 48 hrs (28%, p<0.05, n=11).
All imaging experiments were performed on a high field (4.23 Tesla) whole body MRI system. A small quadrature birdcage radiofrequency coil (50 mm ID, Morris Inc.) and a high strength gradient insert coil (30 mT/m, Bruker model G-33) were employed. Acquisition parameters were TR=100 msec, TE=5.6 msec, FOV=40 mm, slice thickness=2.5 mm, flip angle=90° , inversion time=25 msec, acquisition matrix was 64×64×8. The two phantoms on all animal images shown were identical (P1-30% Ficoll in 200 mM NaCl; P2-40% Ficoll in 200 mM NaCl). All animal images were normalized to the brighter phantom (e.g. P1 on the SQ, P2 on the IR). Animals were positioned in a specially designed animal holder, allowing for reproducible tumor placement.
Two adjacent slices from a 3 dimensional gradient echo image set of a PC3 tumor are shown before (FIGS. 5, A&B) and 48 hrs after (FIGS. 5, C&D) injection of 1.5 mg taxotere to the nude mouse. […] The second example illustrates the contribution of this technique at its limit of resolution.
Inversion recovery images (25 msec inversion time) were acquired for 16 nude mouse tumors following chemotherapy. […]

PC3 cells = assay: Annexin V/FITC labeling of live (propidium iodide negative) cells, flow cytometry; type: cell-based, human
Procedure: Enhanced FITC fluorescence (annexin positive response; panel B) indicated reorientation of phosphatidylserine within the cell membrane. PI was added to detect dead cells, which was both PI and annexin positive, the latter response due to internal binding of an antibody to phosphatidylserine sites accessed through membrane rupture. Control cells were mostly PI and FITC negative. The percentage of live PC3 cells that were annexin positive (vertical axis) is plotted versus time (horizontal axis) for taxotere (10 nM; filled circles) and VP-16 (10 ug/ml; filled triangles). A one dimensional annexin histogram (FITC intensity) for live cells is shown for control (bottom insert) and after 24 hrs VP-16 (top insert). Flow cytometry was performed on the Becton/Dickenson FACStar II (APO-BrdU) or exCaliber flow system (Annexing) at the Columbia University Cancer Center and analyzed using CellQuest Software.
a) Early events—reorientation of phosphatidylserine: Live cells exposed to an Annexin V/FITC conjugated antibody. Enhanced fluorescence indicates reorientation of phosphatidylserine within the cell membrane (61, 93). Propidium iodide (PI) concurrently indicates cell viability. Since trypsin cleaves the annexin binding site, for dissociating cells from explanted tumor, trypsin containing collagenase preparations were not used. Cells are dissociated by mincing the tumor with surgical scissors and passing tissue repeatedly through needles while increasing the gauge. Cells are removed from tissue culture plates using 1 mM EDTA in Ca/Mg free PBS.
Flow cytometry was used to examine a second, presumably an earlier event in the apoptotic cascade, reorientation of phosphatidylserine within the cell membrane (FIG. 3.B.). Live cells were exposed to an annexin\V/FITC conjugated antibody. For annexin labeling, cells were cultured for 1 day, treated, then lifted off the culture plate using PBS plus EDTA and exposed to Annexin V/FITC conjugated antibody. Trypsin—which cleaves the antibody binding site—was avoided.

PC3 cell = assay: APO-BRDU endlabelling of DNA fragmentation, flow cytometry, PC3; type: cell-based, human
Procedure: At the end of the treatment period, cells are trypsinized, resuspended in media, resuspended in PBS, resuspended in iced cold methanol free formaldehyde (1% in PBS) for 15 min, resuspended in 70% ethanol and stored at −20° C. until all samples from a given experiment are ready to run (19, 23). Using a very powerful endlabelling technique (APO-BRDU, Phoenix Flow Systems, California) which gives a dynamic range of fluorescence intensities of up to 1000 fold comparing control cells to cells with advanced DNA fragmentation. Results have been confirmed using positive and negative controls provided by Phoenix Flow Systems, camptothecin treated PC3 cells, and a SNAP treated myocyte line.
Fixed cells are labeled following kit instructions (two washes with kit buffer, overnight endlabelling, two resuspensions in a rinse buffer, exposure to fluorescent antibody and treatment with propidium iodide and RNAase. Flow cytometry is performed on a Becton/Dickenson FACStar II. Individual fluorescence intensity values for 10,000 cells are obtained for each sample.
To specifically assay DNA fragmentation, a downstream response to apoptosis, uses of a terminal deoxynucleotidyl transferase labeling approach whereby fluorescent moieties are enzymatically attached to all DNA fragment ends. (FIG. 3a) The technique which was used, has a dynamic range of approximately ×1000 (FIG. 2). […]

[1] = 24 hrs, VP-16 10 μg/ml, taxotere 10 nM

Compound	increase in maximum IR sodium image intensity (PC3 tumors)	detectability of tumor on IR image (PC3 tumors; elongated PC3 tumor, 24 hr after injection of 0.3 mg)	fraction of live cells (propidium iodide negative) in the annexin V positive peak (PC3 cells; 10 μg/ml, maximum response (24 hrs))	annexin V response (PC3 cells; 17 hrs, 10 μg/ml)	annexin V response (PC3 cells; [1])	standard dose relative to Kd of annexin V dose response curve (PC3 cells; Kd measured at 24 hrs, standard dose 10 μg/ml)	time course of DNA fragmentation (PC3 cell)	spatial change of tumor on inversion recovery image (PC3 tumors; PC3 tumor, 48 hrs after injection of 1.5 mg)	time by which markers for apoptosis were detectable (PC3 cells; 10 nMol/L in culture)	time by which markers for apoptosis were pronounced (PC3 cells; 10 nMol/L in culture)	standard dose relative to Kd of annexin V dose response curve (PC3 cells; Kd measured at 48 hrs, standard dose 10 nM)	annexin V response (PC3 cells; higher drug concentrations (10.0 μM) or later times (e.g. 48 hrs))
COc1cc([C@@H]2c3cc4c(cc3[C@@H](O[C@@H]3O[C@@H]5CO[C@@H](C)O[C@H]5[C@H](O)[C@H]3O)[C@H]3COC(=O)[C@H]23)OCO4)cc(OC)c1O [VP-16, etoposide]	38%	readily apparent following chemotherapy	Up to ⅔	apparent	pronounced	approximately 3 ×Kd	continues to develop beyond the 24-hr sample point	–	–	–	–	–
CC(=O)O[C@@]12CO[C@@H]1C[C@H](O)[C@@]1(C)C(=O)[C@H](O)C3=C(C)[C@@H](OC(=O)[C@H](O)[C@@H](NC(=O)OC(C)(C)C)c4ccccc4)C[C@@](O)([C@@H](OC(=O)c4ccccc4)[C@H]21)C3(C)C [taxotere]	32%	–	–	–	much less pronounced	–	continues to develop beyond the 24-hr sample point	clear spatial broadening of the tumor	≤ 24 h	≤ 48 h	approximately 3 ×Kd	substantially greater
